This is an account of results in paper PMC8944975, “Secretin Receptor as a Target in Gastrointestinal Cancer: Expression Analysis and Ligand Development” (Biomedicines, 2022).

The conditions of data set [1]: in vivo; cited from earlier work. The text has this: Due to their vulnerability towards proteolytic degradation, most peptide hormones have short half-lives of only a few minutes. […] To chemically stabilize a peptide ligand by the introduction of artificial amino acids, the amino acid positions crucial for its activity need to be identified. The experimental strategy included design and synthesis of a library of secretin variants that would contain single amino acid substitutions as well as truncations on either end. To characterize a large number of individual peptides ...

Data set [2] deals with T1, human SCTR (Homo sapiens, UniProt P47872). Put plainly: GloSensor cAMP assay, agonist mode. The format is cell-based. Details: expressed in transfected cells. To be noted: for Emax: read-out: cAMP Production, Intrinsic Activity. Here is the method:
Analysis of downstream signaling of activated SCTR via Gαs G-protein subunits was performed by monitoring intracellular cAMP utilizing the GloSensor system (Promega, Walldorf, Germany) in accordance with the supplier protocol. Measurements were performed using the EnVision Analyzer (PerkinElmer, Rodgau, Germany). For evaluation, concentration–response curves (signal-to-noise ratios plotted) employing the derived statistical mean and SD for estimation of the respective EC50 were calculated using Spotfire Decision Site (TIBCO, Palo Alto, CA, USA). For the analysis of antagonists, a modified protocol was used. Treatment of cells and dilution of the potential antagonist was performed as previously described. Ligand dilutions were added to cells and incubated at room temperature for 5 min. Successively, secretin was added at a final concentration of 0.5 nM for an additional 15 min at room temperature. The emitted chemiluminescence, which correlates with the cAMP concentration, was detected with suitable filters. Evaluation of data was performed as previously described with a calculation of half-maximal inhibitory concentration (IC50).
For orientation: Cyclic AMP is a second messenger, typically raised through Gs and lowered through Gi signalling.

The target in data set [3] is T1, human SCTR. Put plainly: β-arr2-GFP translocation assay run in antagonist mode. The data set is classed as cell-based. Details: expressed in transfected cells; host or cells: U2OS (human osteosarcoma), stably co-transfected with β-arrestin2-GFP. The text has this: U2OS-SCTR/β-arr2-GFP: human osteosarcoma cell line U2OS (purchased from ATCC/LGC Standards, Wesel, Germany) were stably transfected with plasmids encoding SCTR (Homo sapiens) and the fusion protein β-arrestin2-green fluorescent protein (GFP) (Rattus norvegicus-Aequorea victoria) (β-arr2-GFP).
For analysis of antagonistic effects on SCTR, a slightly modified protocol of the β-arr2-GFP translocation was used. […] For analysis, cells were terminally fixed and permeabilized as previously described. The additional monitoring of IDCC fluorescence in the near-infrared channel (667 nm) provided another measure for receptor binding and activation.

The test system of data set [4] is isolated pancreatic membranes. To be noted: cited from earlier work. An excerpt: (§1) Early studies of secretin had shown that its biological activity resides particularly in the amino terminus. […] Despite their lack of activation, these truncated peptides were able to displace native secretin at high concentrations.
Data set [5] has as its system pancreatic secretion of both fluid and bicarbonate. To be noted: cited from earlier work.
Source text: as §1

Another data set has as its system SCTR. To be noted: variant of rat secretin(5–27); cited from earlier work.
Source text: as §1

The target of data set [6] is T2, human secretin receptor (SCTR) (human, UniProt P47872 23-440). The experiment in a line: radioligand binding; saturation binding of I^125-secretin on U2OS-SCTR membrane isolates; total, unspecific and specific binding.
T2 sequence (P47872 23-440): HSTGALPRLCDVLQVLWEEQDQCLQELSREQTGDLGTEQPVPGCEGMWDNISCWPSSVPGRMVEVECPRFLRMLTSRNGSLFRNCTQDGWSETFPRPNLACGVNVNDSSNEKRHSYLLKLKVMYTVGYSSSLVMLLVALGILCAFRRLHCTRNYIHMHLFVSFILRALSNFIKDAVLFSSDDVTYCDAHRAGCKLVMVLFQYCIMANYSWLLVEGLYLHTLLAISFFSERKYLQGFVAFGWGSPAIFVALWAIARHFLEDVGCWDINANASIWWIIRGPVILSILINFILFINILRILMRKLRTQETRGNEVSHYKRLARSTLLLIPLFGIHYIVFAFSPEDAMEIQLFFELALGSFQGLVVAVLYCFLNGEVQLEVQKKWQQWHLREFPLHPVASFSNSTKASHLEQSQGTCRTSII
In data set [7] the target is T2, human secretin receptor (SCTR).
Data set [8] has the same target. Put plainly: cell-based or functional assay.
The mark [9] stands for this setting: GloSensor cAMP assay, at least 3 independent experiments in duplicates.
[10] abbreviates: Supplementary Table S2, GloSensor system, at least three independent experiments in duplicates, decimal comma, read-out: cAMP agonism potency.
[11] abbreviates: read-out: IC50, inhibition of β-arr2-GFP translocation (Table 2).

Read-outs that look alike come from different tables or passages of the source. Where no end group is shown, it is not given here. [ ]: non-standard residue; d: D form.

T1 sequence (P47872 23-440): as above

Usually half-life stands for how long it takes for the measured level to halve. On to `CC(C)C[C@H](NC(=O)CNC(=O)[C@H](CCC(N)=O)NC(=O)[C@H](CC(C)C)NC(=O)[C@H](CC(C)C)NC(=O)[C@H](CCCNC(=N)N)NC(=O)[C@H](CCC(N)=O)NC(=O)[C@H](CC(C)C)NC(=O)[C@H](CCCNC(=N)N)NC(=O)[C@H](C)NC(=O)CNC(=O)[C@H](CCC(=O)O)NC(=O)[C@H](CCCNC(=N)N)NC(=O)[C@H](CC(C)C)NC(=O)[C@H](CCCNC(=N)N)NC(=O)[C@H](CO)NC(=O)[C@H](CC(C)C)NC(=O)[C@H](CCC(=O)O)NC(=O)[C@H](CO)NC(=O)[C@@H](NC(=O)[C@H](Cc1ccccc1)NC(=O)[C@@H](NC(=O)CNC(=O)[C@H](CC(=O)O)NC(=O)[C@H](CO)NC(=O)[C@@H](N)Cc1c[nH]cn1)[C@@H](C)O)[C@@H](C)O)C(=O)N[C@H](C(N)=O)C(C)C` [Peptide 1, reference compound], for which the half-life in data set [1] is 2.5 to 4 min. Moreover, the Emax at human SCTR [2] (setting [9]) worked out at 100%.
As to `CC(C)C[C@H](NC(=O)CNC(=O)[C@H](CCC(N)=O)NC(=O)[C@H](CC(C)C)NC(=O)[C@H](CC(C)C)NC(=O)[C@H](CCCNC(=N)N)NC(=O)[C@H](CCC(N)=O)NC(=O)[C@H](CC(C)C)NC(=O)[C@H](CCCNC(=N)N)NC(=O)[C@H](C)NC(=O)CNC(=O)[C@H](CCC(=O)O)NC(=O)[C@H](CCCNC(=N)N)NC(=O)[C@H](CC(C)C)NC(=O)[C@H](CCCNC(=N)N)NC(=O)[C@H](CO)NC(=O)[C@H](CC(C)C)NC(=O)[C@H](CCC(=O)O)NC(=O)[C@H](CO)NC(=O)[C@@H](NC(=O)[C@H](Cc1ccccc1)NC(=O)[C@@H](NC(=O)CN)[C@@H](C)O)[C@@H](C)O)C(=O)N[C@H](C(=O)O)C(C)C` [Peptide 117], at human SCTR [2] (setting [10]), the EC50 is 166 nM. Also, the IC50 at human SCTR [3] (setting [11]) is 1920 ± 355 nM.
Take `CC(C)C[C@H](NC(=O)CNC(=O)[C@H](CCC(N)=O)NC(=O)[C@H](CC(C)C)NC(=O)[C@H](CC(C)C)NC(=O)[C@H](CCCNC(=N)N)NC(=O)[C@H](CCC(N)=O)NC(=O)[C@H](CC(C)C)NC(=O)[C@H](CCCNC(=N)N)NC(=O)[C@H](C)NC(=O)CNC(=O)[C@H](CCC(=O)O)NC(=O)[C@H](CCCNC(=N)N)NC(=O)[C@H](CC(C)C)NC(=O)[C@H](CCCNC(=N)N)NC(=O)[C@H](CO)NC(=O)[C@H](CC(C)C)NC(=O)[C@H](CCC(=O)O)NC(=O)[C@H](CO)NC(=O)[C@@H](N)[C@@H](C)O)C(=O)N[C@H](C(N)=O)C(C)C` [Peptide 120]: the Emax on human SCTR [2] (setting [9]) amounted to 90.6 ± 11.5%. The EC50 at human SCTR [2] (GloSensor cAMP assay, at least 3 independent experiments in duplicates, read-out: cAMP Production, EC50) amounted to 3370 ± 1570 nM. For the same molecule, the IC50 on human SCTR [3] (setting [11]) was above 3000 nM; on human SCTR [3] (read-out: Inhibition of β-arr2-GFP Translocation, IC50), above 3000 nM.
With `CC(C)C[C@H](NC(=O)CNC(=O)[C@H](CCC(N)=O)NC(=O)[C@H](CC(C)C)NC(=O)[C@H](CC(C)C)NC(=O)[C@H](CCCNC(=N)N)NC(=O)[C@H](CCC(N)=O)NC(=O)[C@H](CC(C)C)NC(=O)[C@H](CCCNC(=N)N)NC(=O)[C@H](C)NC(=O)CNC(=O)[C@H](CCC(=O)O)NC(=O)[C@H](CCCNC(=N)N)NC(=O)[C@H](CC(C)C)NC(=O)[C@H](CCCNC(=N)N)NC(=O)[C@H](CO)NC(=O)[C@H](CC(C)C)NC(=O)[C@H](CCC(=O)O)NC(=O)[C@@H](N)CO)C(=O)N[C@H](C(=O)O)C(C)C` [Peptide 121], the EC50 at human SCTR [2] (setting [10]) was above 10000 nM. Also, the IC50 on human SCTR [3] (setting [11]) was determined as 2730 ± 60 nM.
As to “Secretin(2–27): N-terminally truncated secretin variant (amino acids 2–27) of the literature (SDGTFTSELSRLREGARLQRLLQGLV; ends and bridges not checked; UniProt P09683 29-54, looked up, fragment)”, the “effect on cAMP synthesis / agonistic effects, in words” value in data set [4] is on record as “severe reduction on cAMP synthesis”.
Turning to [(CH2NH)4,5]secretin, the “effect on pancreatic secretion, in words” value in [5] was “dose-dependently increased pancreatic secretion of both fluid and bicarbonate”.
Take [I17, R25]-secretin(5–27): the affinity in the data set on SCTR is 23 nM.
One may read the Kd as the constant that tells how readily two partners part at equilibrium. Low readings indicate a tighter complex, high ones a looser complex. In data set [6], “^125I-labelled W27, Y28-secretin (peptide)” gave a Kd of 0.074 nM.

B1: peptide 120, secretin(7–27) (peptide)
peptide: TSELSRLREGARLQRLLQGLV
For the molecule B1, in data set [7], the cAMP production (GloSensor), agonist mode: EC50 was 3370 nM and the cAMP production (GloSensor), agonist mode: intrinsic activity [% of secretin] worked out at 90.6%.

B2: peptide 136 (peptide)
peptide: [dR]FTSELSRLREAARLQRLLQGLV
modifications: ends and bridges not checked
On to B2, for which the “cAMP production (GloSensor), agonist mode: intrinsic activity [% of secretin]” value (“cAMP production (GloSensor) … [% of secretin]” below) in [8] amounted to 33.6%.

B3: peptide 144 (peptide)
peptide: [dR]FTSELSRLREGARLQRLLQALV
modifications: ends and bridges not checked
On to B3, for which, in data set [8], the “cAMP production (GloSensor) … [% of secretin]” value turned out to be 31.1%.

B4: peptide 143 (peptide)
peptide: [dR]FTSELSRLREGARLQRLLAGLV
modifications: ends and bridges not checked
Take B4: the “cAMP production (GloSensor) … [% of secretin]” value in data set [8] was 27.5%.
